Measurements published in patent US4755526A, “Method of inhibiting aromatase” (Eli Lilly and Company, priority 1984, dated 1988).
Counter-ions that a name gives are not always drawn.

Key:
breast cancer = conditions: Cancer Research, Vol. 42, Suppl. 8: 3261s (1982); cited from earlier work
estrogen synthesis = test: Estrogen synthesis inhibition in rats (uterine weight and ovarian steroid concentrations); type: in vivo, female Wistar rats; conditions: for Mean Steroid Concentration, estradiol / Mean Steroid Concentration, estriol / Mean Steroid Concentration, estrone: ovaries; for Mean Uterine Weight: testosterone propionate-treated rats
Experimental: Test compounds were administered for seven days either daily by gavage in corn oil or as a component of the diet. Control animals received either corn oil or diet without the test compound. Beginning on the fourth day of the test, all animals treated with the test compound and one half of the control animals were given a subcutaneous injection of 1.0 mg of testosterone propionate in corn oil. The remaining control animals received only an equivalent volume of corn oil.
After two hours, the animals were killed by decapitation. Uteri were isolated, trimmed of extraneous connective tissue, and weighed. […] In the control animals treated with testosterone propionate, estrogens produced by aromatization stimulated the uterus resulting in an increase in weight.
The ovarian steroids were extracted with 1.5 ml of 9:1 (v/v) toluene/ethanol to which had been added 25 to 100 mcg each of unlabelled estradiol, estriol, and estrone, and approximately 1000 dpm of [^14 C]-estradiol. The samples were vortexed, centrifuged at 500×g for 10 minutes, and the organic phase was transferred to a conical vial. Two additional extractions were performed on the residue in the same way. The pooled organic extracts were evaporated for subsequent thin-layer chromatography.
Ovarian proteins were precipitated by the addition of 5.0 ml of ethanol to the remaining aqueous phase. After an overnight incubation at 4° C., the samples were centrifuged at 1500×g for 10 minutes. The supernatant was discarded, and the pellet was dissolved in 0.3N potassium hydroxide.
The organic residue from each above extraction was redissolved in 9:1 (v/v) dichloromethane/methanol. The solution of each sample was applied to separate silica gel thin layer chromatography plates which contained a fluorescent indicator. The plates were developed in the first dimension with 160:38:1.5:0.5 (v/v/v/v) dichloromethane/ethyl acetate/methanol/acetic acid to within 3 cm of the top of the plate. After air-drying, the plate was developed in the second dimension with 180:19:1 (v/v/v) dichloromethane/methanol/ammonium hydroxide. The plate was air-dried and viewed under 254 nm UV light.
The visible spots were marked and the plates were sprayed with primulin (0.001% in 4:1 v/v acetone/water) according to the method of Wright, J. Chromatography, 59, 220 (1971) which allowed for the identification of additional steroids under 365 nm UV light. The spots were scraped from the plate using a glass wool plugged Pasteur pipet attached to a vacuum line. The steroids were eluted directly into scintillation vials by the addition of 0.2 ml of dichloromethane followed by two washes each of 2.0 ml of methanol. The organic solvent was evaporated and 10.0 ml of scintillation fluid (Beckman Ready Solv-NA) was added to the vials. Samples were analyzed by liquid scintillation spectrometry. Corrections were made based on the recoveries of the [^14 C]-steroid. Steroid concentrations are expressed as femtomoles per milligram protein.

[1] = tested on: DMBA-induced mammary tumors; test: DMBA-induced mammary tumor inhibition; type: in vivo, female Sprague-Dawley rats
Experimental: Mammary tumors were produced in female Sprague-Dawley rats which were 50-60 days old by the gavage administration of 20 mg of 7,12-dimethylbenz[a]anthracene (DMBA). About six weeks after DMBA administration, the mammary glands were palpated at weekly intervals for the appearance of tumors. Whenever one or more tumors appeared and were measurable in an animal, that animal was selected for experimentation. […] Each control and test group contained 8 animals. The test compound was administered either mixed into the food at a concentration of 300 ppm (corresponding to an appropriate daily dose of 30 mg/kg) or the compounds were dissolved or suspended in corn oil and administered once daily by gavage. Every experiment included a group of control rats having tumors and were either given food without the compound admixed or corn oil vehicle by gavage, depending on how the test compound was administered. […] The area of each tumor was calculated by multiplying the shortest and longest diameters of the tumor. The treatment and measurement of animals continued for 4-8 weeks at which time the final areas of the tumors were determined. For each compound (and control) at each dose level, the change in the mean tumor area was determined. The mean change was analyzed for its significance using Dunnett's t-test.

aromatase = molecular target: T1, aromatase (Rattus norvegicus, UniProt P22443); test: Aromatase inhibition in the rat ovarian microsome assay; type: biochemical; conditions: EC50: concentration required to achieve 50% inhibition of aromatase activity, substrate (androstenedione) concentration 0.1 μM
T1 construct: ovarian microsomes are obtained from rats treated with pregnant mares serum gonadotropin; from tissue; host or cells: ovarian microsomes of rats treated with pregnant mares serum gonadotropin
T1 sequence (P22443 1-508): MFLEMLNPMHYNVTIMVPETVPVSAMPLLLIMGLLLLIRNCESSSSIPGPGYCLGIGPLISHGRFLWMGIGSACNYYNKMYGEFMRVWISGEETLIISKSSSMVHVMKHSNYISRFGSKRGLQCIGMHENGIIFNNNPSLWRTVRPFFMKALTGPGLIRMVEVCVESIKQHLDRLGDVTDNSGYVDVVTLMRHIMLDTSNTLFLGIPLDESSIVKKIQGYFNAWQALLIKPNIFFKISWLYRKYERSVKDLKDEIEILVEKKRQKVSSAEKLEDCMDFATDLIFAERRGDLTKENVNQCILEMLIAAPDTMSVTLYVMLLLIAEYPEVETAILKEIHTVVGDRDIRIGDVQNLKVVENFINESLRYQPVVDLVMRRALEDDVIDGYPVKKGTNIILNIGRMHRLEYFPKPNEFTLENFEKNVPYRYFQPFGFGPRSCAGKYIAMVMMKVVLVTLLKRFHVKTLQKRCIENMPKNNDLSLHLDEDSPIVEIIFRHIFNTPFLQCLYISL
Experimental: In this test system, ovarian microsomes are obtained from rats treated with pregnant mares serum gonadotropin. Test compounds are added to reaction vials containing 0.1 μM 4-androstene-3,17-dione, 100,000 dpm 1,2[^3 H]-androstenedione, the microsomes and a NADPH generating system. The concentrations of the inhibitors tested ranged between 0.005 and 10 μM.

[2] = 30 ppm in feed (approximately 3 mg/kg/day)
[3] = 300 ppm in feed (approximately 30 mg/kg/day)
[4] = 300 ppm in diet, 4 weeks, control 62.8 to 1087.3 (Test II), 1087.0 (Test III)
[5] = 200 ppm in feed (approximately 20 mg/kg/day)

Compound | Mean Steroid Concentration, estradiol (estrogen synthesis; [2]) | Mean Steroid Concentration, estriol (estrogen synthesis; [2]) | Mean Steroid Concentration, estrone (estrogen synthesis; [2]) | Mean Uterine Weight (estrogen synthesis; [2]) [mg] | Mean Steroid Concentration, estradiol (estrogen synthesis; [3]) | Mean Steroid Concentration, estriol (estrogen synthesis; [3]) | Mean Steroid Concentration, estrone (estrogen synthesis; [3]) | Mean Uterine Weight (estrogen synthesis; [3]) [mg] | EC50 (aromatase) [nM] | also measured
C[C@]12C=CC(=O)C=C1CC[C@@H]1[C@@H]2CC[C@]2(C)OC(=O)CC[C@@H]12 [testolactone] | – | – | – | – | – | – | – | – | – | effect in treatment of breast cancer (breast cancer): beneficial effect in treatment of breast cancer
O=[N+]([O-])c1ccc(C(c2ccc([N+](=O)[O-])cc2)n2ccnc2)cc1 [1-[bis(4-nitrophenyl)methyl]imidazole] | 0.92 femtomoles per milligram of protein | 1.65 femtomoles per milligram of protein | 1.58 femtomoles per milligram of protein | 105.0 | 0.28 femtomoles per milligram of protein | 0.83 femtomoles per milligram of protein | 0.94 femtomoles per milligram of protein | 110.8 | – | Mean Tumor Area, Start ([1]; 300 ppm in diet, 4 weeks test): 64.5 mm^2; Mean Tumor Area, Finish [1, 4]: 18.9 mm^2
Clc1ccc(C(c2ccc(Cl)cc2)(c2cccnc2)n2ccnc2)cc1 [3-[4,4'-dichloro-α-(1-imidazolyl)diphenylmethyl]pyridine] | 1.25 femtomoles per milligram of protein | 0.27 femtomoles per milligram of protein | 0.11 femtomoles per milligram of protein | 118.0 | 0.75 femtomoles per milligram of protein | 0.28 femtomoles per milligram of protein | 0.24 femtomoles per milligram of protein | 96.8 | – | Mean Tumor Area, Start ([1]; 300 ppm in diet, 4 weeks test): 53.8 mm^2; Mean Tumor Area, Finish [1, 4]: 154.0 mm^2
Clc1ccc(C(c2ccc(Cl)cc2)n2ccnc2)cc1 [1-[bis(4-chlorophenyl)methyl]imidazole] | – | – | 0.09 femtomoles per milligram of protein | 85.3 | – | – | – | 66.0 | – | Mean Tumor Area, Start ([1]; 5 mg/kg daily by gavage, 4 weeks test): 44.8 mm^2; Mean Tumor Area, Finish ([1]; 5 mg/kg daily by gavage, 4 weeks, control 54.8 to 914.0): 346.0 mm^2; Mean Tumor Area, Start ([1]; 30 mg/kg daily by gavage, 4 weeks test): 62.4 mm^2; Mean Tumor Area, Finish ([1]; 30 mg/kg daily by gavage, 4 weeks, control 54.8 to 914.0): 276.0 mm^2; Mean Tumor Area, Start ([1]; 300 ppm in diet, 6 weeks test): 57.4 mm^2; Mean Tumor Area, Finish ([1]; 300 ppm in diet, 6 weeks, control 49.6 to 752.1): 40.8 mm^2
O=[N+]([O-])c1ccc(Cn2ccnc2)cc1 [1-[(4-nitrophenyl)methyl]-1H--imidazole hydrochloride] | 1.16 femtomoles per milligram of protein | 0.80 femtomoles per milligram of protein | 0.88 femtomoles per milligram of protein | 185.3 | 0.79 femtomoles per milligram of protein | 1.11 femtomoles per milligram of protein | 1.19 femtomoles per milligram of protein | 147.2 | 29 | –
Clc1ccc(C(c2ccccc2)n2ccnc2)cc1 (stereo not drawn) [1-[(4-chlorophenyl)phenylmethyl]-1H--imidazole] | 0.92 femtomoles per milligram of protein | 0.75 femtomoles per milligram of protein | – | 114.8 | 0.00 femtomoles per milligram of protein | 0.35 femtomoles per milligram of protein | 0.11 femtomoles per milligram of protein | 68.4 | – | Mean Tumor Area, Start ([1]; 300 ppm in diet, 5 weeks test): 49.3 mm^2; Mean Tumor Area, Finish ([1]; 300 ppm in diet, 5 weeks, control 48.4 to 818.0): 467.0 mm^2
CCOc1ccccc1C(C1CCCCC1)n1ccnc1 (stereo not drawn) [1-[cyclohexyl(2-ethoxyphenyl)methyl]-1H--imidazole hydrochloride] | 1.30 femtomoles per milligram of protein | 0.36 femtomoles per milligram of protein | 0.24 femtomoles per milligram of protein | 149.0 | 1.11 femtomoles per milligram of protein | 0.28 femtomoles per milligram of protein | 0.20 femtomoles per milligram of protein | 96.6 | 22 | –
CCC1(c2ccc(N)cc2)CCC(=O)NC1=O (stereo not drawn) [aminoglutethimide] | – | – | – | – | – | – | – | – | – | effect in treatment of breast cancer (breast cancer): beneficial effect in treatment of breast cancer
FC(F)(F)c1cccc(C(c2ccc(Cl)cc2)(c2cccnc2)n2ccnc2)c1 (stereo not drawn) [3-[(4-chlorophenyl)-1H--imidazol-1-yl-(3-trifluoromethylphenyl)methyl]pyridine] | – | – | – | – | – | – | – | – | < 50 | Mean Steroid Concentration, estradiol (estrogen synthesis; [5]): 0.70 femtomoles per milligram of protein; Mean Steroid Concentration, estriol (estrogen synthesis; [5]): 0.27 femtomoles per milligram of protein; Mean Steroid Concentration, estrone (estrogen synthesis; [5]): 0.06 femtomoles per milligram of protein; Mean Uterine Weight (estrogen synthesis; [5]): 122.6 mg
c1ccc(C(c2ccccc2)(c2ccncc2)n2ccnc2)cc1 [4-(1H--imidazol-1-yl-diphenylmethyl)pyridine] | 0.78 femtomoles per milligram of protein | 0.35 femtomoles per milligram of protein | 0.25 femtomoles per milligram of protein | 156.0 | 0.61 femtomoles per milligram of protein | 0.29 femtomoles per milligram of protein | 0.23 femtomoles per milligram of protein | 110.8 | 12 | –
C#CC(c1ccccc1)(c1ccccc1)n1ccnc1 [1-(1,1-diphenyl-2-propynyl)-1H--imidazole] | 1.05 femtomoles per milligram of protein | 1.06 femtomoles per milligram of protein | 0.00 femtomoles per milligram of protein | 212.3 | 1.01 femtomoles per milligram of protein | 0.60 femtomoles per milligram of protein | 0.00 femtomoles per milligram of protein | 137.6 | 18 | –
